Experimental data from patent US7045658B2, “Formailide derivatives as beta2-adrenoreceptor agonists” (Glaxo Group Limited, priority 2001, dated 2006).
pIC50: −log10 of the molar value.

Biological target: T1, human beta 2 adrenoreceptor (Homo sapiens, UniProt P07550)
T1 construct: expressed in transfected cells; host or cells: frog melanophores
Assay: frog melanophores transfected with human beta 2 adrenoreceptor, pigment dispersal (light transmittance)
Format: cell-based
Settings: melatonin-induced pigment aggregation, change in light transmittance, read-out: IC50 values at the human beta 2 adrenoreceptor (beta 2 agonist activity)
Method: The potencies of the aforementioned compounds were determined using frog melanophores transfected with the human beta 2 adrenoreceptor. The cells were incubated with melatonin to induce pigment aggregation. Pigment dispersal was induced by compounds acting on the human beta 2 adrenoreceptor. The beta 2 agonist activity of test compounds was assessed by their ability to induce a change in light transmittance across a melanophore monolayer (a consequence of pigment dispersal).

T1 sequence (P07550 whole entry): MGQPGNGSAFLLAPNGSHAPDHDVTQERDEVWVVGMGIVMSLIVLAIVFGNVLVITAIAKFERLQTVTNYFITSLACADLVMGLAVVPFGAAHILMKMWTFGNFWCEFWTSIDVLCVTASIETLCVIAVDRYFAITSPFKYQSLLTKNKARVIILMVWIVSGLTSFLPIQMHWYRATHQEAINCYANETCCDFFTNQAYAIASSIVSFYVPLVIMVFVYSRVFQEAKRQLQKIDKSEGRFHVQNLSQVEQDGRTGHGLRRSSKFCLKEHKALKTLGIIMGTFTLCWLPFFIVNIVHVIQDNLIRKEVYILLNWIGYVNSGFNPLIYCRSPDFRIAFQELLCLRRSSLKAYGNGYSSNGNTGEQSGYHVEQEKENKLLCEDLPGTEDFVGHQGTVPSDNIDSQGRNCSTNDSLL

pIC50 | SMILES
> 6.00 | CC(C)(C)NS(=O)(=O)c1cccc(CCCCOCCCCCCNC[C@H](O)c2ccc(O)c(NC=O)c2)c1 [Example 2, N-(tert-Butyl)-3-(4-{[6-({(2R)-2-[3-(formylamino)-4-hydroxyphenyl]-2-hydroxyethyl}amino)hexyl]oxy}butyl)benzenesulfonamide]
> 6.00 | NS(=O)(=O)c1cccc(CCCCOCCCCCCNC[C@H](O)c2ccc(O)c(NC=O)c2)c1 [Example 1, 3-(4-{[6-({(2R)-2-[3-(Formylamino)-4-hydroxyphenyl]-2-hydroxyethyl}amino)hexyl]oxy}butyl)benzenesulfonamide compound with (2E)-but-2-enedioic acid (2:1)]
